The results in this text go back to patent US20250161266A1, “Antibacterial 4.5 Diaryl-Thiophen-2-YL Hexafluoropropan-2-OLS” (priority 2022, published 2025).

“And” between values parts separate entries of the source, which are not always exact repeats. Equal entries are not always repeated.

This assay relates to Bacillus anthracis. It counts as cell-based.

Regarding `Cc1cc(Cl)ccc1-c1cc(C(O)(C(F)(F)F)C(F)(F)F)sc1-c1ccc(Cl)cc1CO` [DNM94A, 2-(5-(4-chloro-2-(hydroxymethyl)phenyl)-4-(4-chloro-2-methylphenyl)thiophen-2-yl)-1,1,1,3,3,3-hexafluoropropan-2-ol], the MIC was found to be 1 µg·mL, the MIC50 was 1 µg·mL and the MIC90 was 1 µg·mL.
For the molecule `Cc1cc(Cl)ccc1-c1sc(C(O)(C(F)(F)F)C(F)(F)F)cc1-c1ccc(Cl)cc1CO` [DNM95A, 2-(4-(4-chloro-2-(hydroxymethyl)phenyl)-5-(4-chloro-2-methylphenyl)thiophen-2-yl)-1,1,1,3,3,3-hexafluoropropan-2-ol], the MIC is 1 µg·mL and 0.5 µg·mL; the MIC50 is 1 µg·mL; the MIC90 is 1 µg·mL.
On to colistin [reference compound], for which the MIC50 entry is recorded as “GT64 μg ml” and the MIC90 entry was “GT64 μg ml”.
